Results published in ChEMBL document CHEMBL4765362, “Thirty Years of HDAC Inhibitors: 2020 Insight and Hindsight” (J Med Chem, 2020).

Tests used:
[1] = molecular target: T1, Polyamine deacetylase HDAC10 (Homo sapiens, UniProt Q969S8); test: Inhibition of HDAC10 (unknown origin)
T1 sequence (Q969S8 whole entry): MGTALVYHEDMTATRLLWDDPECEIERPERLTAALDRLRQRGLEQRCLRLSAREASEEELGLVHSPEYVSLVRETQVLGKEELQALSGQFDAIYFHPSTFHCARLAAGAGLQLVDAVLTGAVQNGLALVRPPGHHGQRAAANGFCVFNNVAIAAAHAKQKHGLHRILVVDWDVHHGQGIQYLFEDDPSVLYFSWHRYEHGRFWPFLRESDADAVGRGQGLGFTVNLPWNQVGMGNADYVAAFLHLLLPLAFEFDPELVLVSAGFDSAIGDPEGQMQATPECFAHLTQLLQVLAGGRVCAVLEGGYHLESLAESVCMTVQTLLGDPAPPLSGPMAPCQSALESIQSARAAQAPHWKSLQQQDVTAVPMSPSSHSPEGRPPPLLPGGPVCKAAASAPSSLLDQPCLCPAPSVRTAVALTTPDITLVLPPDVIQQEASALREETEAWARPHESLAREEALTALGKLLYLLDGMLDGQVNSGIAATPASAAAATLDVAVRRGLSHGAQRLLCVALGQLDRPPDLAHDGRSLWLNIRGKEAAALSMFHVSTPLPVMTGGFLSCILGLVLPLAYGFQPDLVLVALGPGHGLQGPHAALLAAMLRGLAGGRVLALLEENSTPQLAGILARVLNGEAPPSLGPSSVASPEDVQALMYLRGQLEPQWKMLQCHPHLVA

[2] = molecular target: T2, Histone deacetylase 11 (Homo sapiens, UniProt Q96DB2); test: Inhibition of HDAC11 (unknown origin)
T2 sequence (Q96DB2 whole entry): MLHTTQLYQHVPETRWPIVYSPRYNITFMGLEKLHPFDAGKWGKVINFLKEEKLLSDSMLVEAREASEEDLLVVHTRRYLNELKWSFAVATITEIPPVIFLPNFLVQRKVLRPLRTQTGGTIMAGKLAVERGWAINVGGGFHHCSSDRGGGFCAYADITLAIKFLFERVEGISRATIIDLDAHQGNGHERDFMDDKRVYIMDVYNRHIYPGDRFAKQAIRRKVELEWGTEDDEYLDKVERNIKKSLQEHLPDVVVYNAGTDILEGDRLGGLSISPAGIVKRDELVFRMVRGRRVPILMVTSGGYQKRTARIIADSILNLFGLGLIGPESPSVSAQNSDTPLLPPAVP

[3] = molecular target: T3, Polyamine deacetylase HDAC10 (Danio rerio, UniProt F1QCV2); test: Inhibition of zebrafish HDAC10 (2 to 675 residues) expressed in Escherichia coli BL21(DE3) cells using N-acetylputrescine as substrate preincubated for 10 mins followed by substrate and measured after 45 to 60 mins by liquid chromatography-mass spectrometry
T3 sequence (F1QCV2 whole entry): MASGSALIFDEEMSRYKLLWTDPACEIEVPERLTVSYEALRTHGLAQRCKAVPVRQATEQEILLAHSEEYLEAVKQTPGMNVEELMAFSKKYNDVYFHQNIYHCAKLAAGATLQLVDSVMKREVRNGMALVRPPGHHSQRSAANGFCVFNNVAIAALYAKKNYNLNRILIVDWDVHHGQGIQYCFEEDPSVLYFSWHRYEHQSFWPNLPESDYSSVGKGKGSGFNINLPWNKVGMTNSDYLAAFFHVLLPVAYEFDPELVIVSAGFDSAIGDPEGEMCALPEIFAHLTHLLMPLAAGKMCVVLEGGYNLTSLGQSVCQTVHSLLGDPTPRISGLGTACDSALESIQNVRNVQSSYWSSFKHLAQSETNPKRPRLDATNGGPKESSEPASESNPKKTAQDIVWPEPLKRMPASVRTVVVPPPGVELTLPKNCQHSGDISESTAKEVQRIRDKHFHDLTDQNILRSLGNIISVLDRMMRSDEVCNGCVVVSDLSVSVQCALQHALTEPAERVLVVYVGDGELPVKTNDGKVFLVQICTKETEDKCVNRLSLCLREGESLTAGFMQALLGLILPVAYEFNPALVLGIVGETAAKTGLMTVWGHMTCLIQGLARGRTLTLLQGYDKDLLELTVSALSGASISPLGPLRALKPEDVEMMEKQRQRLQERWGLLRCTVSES

[4] = molecular target: Histone deacetylase 3/Nuclear receptor corepressor 2 (HDAC3/NCoR2) (Homo sapiens, UniProt O15379); test: Inhibition of His-tagged GST-fused human HDAC3/NcoR2 expressed in sf9 cells using acetyl-lysine tripeptide as substrate preincubated for 10 mins followed by substrate addition and shaken for 5 secs and measured over 30 mins
[5] = molecular target: Histone deacetylase 4 (Homo sapiens, UniProt P56524); test: Inhibition of human HDAC4 expressed in baculovirus infected sf9 cells using acetyl-lysine tripeptide as substrate preincubated for 10 mins followed by substrate addition and shaken for 5 secs and measured over 30 mins
[6] = molecular target: Histone deacetylase 5 (Homo sapiens, UniProt Q9UQL6); test: Inhibition of human HDAC5 using acetyl-lysine tripeptide as substrate preincubated for 10 mins followed by substrate addition and shaken for 5 secs and measured over 30 mins
[7] = molecular target: T4, Protein deacetylase HDAC6 (Homo sapiens, UniProt Q9UBN7); test: Inhibition of HDAC6 (unknown origin) using acetyl-lysine tripeptide as substrate preincubated for 10 mins followed by substrate addition and shaken for 5 secs and measured over 30 mins
T4 sequence (Q9UBN7 whole entry): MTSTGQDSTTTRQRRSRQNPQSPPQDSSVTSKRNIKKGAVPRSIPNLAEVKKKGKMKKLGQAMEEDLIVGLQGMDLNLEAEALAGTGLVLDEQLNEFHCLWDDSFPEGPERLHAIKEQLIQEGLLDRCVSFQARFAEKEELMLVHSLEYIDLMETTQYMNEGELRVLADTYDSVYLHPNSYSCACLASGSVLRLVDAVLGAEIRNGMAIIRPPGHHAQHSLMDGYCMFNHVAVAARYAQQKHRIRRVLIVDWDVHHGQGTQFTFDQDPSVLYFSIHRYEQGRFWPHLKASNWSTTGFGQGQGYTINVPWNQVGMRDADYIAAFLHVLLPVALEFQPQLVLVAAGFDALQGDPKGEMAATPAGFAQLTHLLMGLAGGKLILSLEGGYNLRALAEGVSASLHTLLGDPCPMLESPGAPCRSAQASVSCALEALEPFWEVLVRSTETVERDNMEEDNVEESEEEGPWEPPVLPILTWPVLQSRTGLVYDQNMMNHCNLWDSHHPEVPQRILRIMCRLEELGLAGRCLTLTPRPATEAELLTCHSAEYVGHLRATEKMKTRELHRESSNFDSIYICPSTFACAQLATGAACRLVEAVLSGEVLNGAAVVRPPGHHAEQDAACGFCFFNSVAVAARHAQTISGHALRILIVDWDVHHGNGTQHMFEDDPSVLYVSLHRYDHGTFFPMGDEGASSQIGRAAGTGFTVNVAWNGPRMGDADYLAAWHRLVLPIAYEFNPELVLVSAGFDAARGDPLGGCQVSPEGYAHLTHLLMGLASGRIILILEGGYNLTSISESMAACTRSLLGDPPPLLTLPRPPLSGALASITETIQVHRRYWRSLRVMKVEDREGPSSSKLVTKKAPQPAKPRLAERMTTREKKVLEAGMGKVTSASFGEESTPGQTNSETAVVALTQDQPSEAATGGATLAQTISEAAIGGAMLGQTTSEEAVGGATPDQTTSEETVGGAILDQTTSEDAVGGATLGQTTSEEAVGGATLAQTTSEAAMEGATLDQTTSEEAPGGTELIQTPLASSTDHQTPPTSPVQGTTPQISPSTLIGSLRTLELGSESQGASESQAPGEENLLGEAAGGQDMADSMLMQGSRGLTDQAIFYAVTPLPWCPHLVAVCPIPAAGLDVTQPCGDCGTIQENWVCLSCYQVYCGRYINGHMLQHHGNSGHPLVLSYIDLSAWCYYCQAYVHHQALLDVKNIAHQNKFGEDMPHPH

[8] = molecular target: T5, Histone deacetylase 7 (Homo sapiens, UniProt Q8WUI4); test: Inhibition of human N-terminal GST-tagged HDAC7 (518 to end residues) expressed in baculovirus infected sf9 cells using acetyl-lysine tripeptide as substrate preincubated for 10 mins followed by substrate addition and shaken for 5 secs and measured over 30 mins
T5 sequence (Q8WUI4 whole entry): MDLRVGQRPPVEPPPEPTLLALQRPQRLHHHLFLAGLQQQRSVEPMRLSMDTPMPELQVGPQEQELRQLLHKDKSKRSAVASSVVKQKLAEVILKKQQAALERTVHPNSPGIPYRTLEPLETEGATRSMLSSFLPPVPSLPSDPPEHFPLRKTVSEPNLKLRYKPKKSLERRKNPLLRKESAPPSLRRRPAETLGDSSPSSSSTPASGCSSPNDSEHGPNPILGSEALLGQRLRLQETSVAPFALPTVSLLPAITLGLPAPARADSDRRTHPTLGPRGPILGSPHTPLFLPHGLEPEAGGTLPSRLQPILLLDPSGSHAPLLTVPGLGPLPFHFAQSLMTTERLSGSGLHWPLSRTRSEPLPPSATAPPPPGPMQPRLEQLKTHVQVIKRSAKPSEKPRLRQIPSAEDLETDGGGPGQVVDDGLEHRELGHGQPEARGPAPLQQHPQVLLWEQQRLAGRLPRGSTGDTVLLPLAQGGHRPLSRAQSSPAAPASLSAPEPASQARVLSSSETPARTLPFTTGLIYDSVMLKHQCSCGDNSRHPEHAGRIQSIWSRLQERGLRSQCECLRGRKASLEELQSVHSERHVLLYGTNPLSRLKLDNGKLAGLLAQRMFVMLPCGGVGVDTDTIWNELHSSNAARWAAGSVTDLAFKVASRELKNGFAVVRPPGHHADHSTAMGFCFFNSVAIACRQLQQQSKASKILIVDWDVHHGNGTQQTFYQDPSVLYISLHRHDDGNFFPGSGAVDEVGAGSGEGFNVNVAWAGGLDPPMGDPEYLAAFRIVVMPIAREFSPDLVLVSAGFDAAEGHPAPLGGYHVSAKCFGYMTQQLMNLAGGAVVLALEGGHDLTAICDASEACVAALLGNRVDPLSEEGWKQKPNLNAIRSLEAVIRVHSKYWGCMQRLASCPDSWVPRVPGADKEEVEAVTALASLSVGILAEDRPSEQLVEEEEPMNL

[9] = molecular target: T6, Histone deacetylase 8 (Homo sapiens, UniProt Q9BY41); test: Inhibition of recombinant human C-terminal His-tagged HDAC8 expressed in baculovirus infected sf9 cells using acetyl-lysine tripeptide as substrate preincubated for 10 mins followed by substrate addition and shaken for 5 secs and measured over 30 mins
T6 sequence (Q9BY41 whole entry): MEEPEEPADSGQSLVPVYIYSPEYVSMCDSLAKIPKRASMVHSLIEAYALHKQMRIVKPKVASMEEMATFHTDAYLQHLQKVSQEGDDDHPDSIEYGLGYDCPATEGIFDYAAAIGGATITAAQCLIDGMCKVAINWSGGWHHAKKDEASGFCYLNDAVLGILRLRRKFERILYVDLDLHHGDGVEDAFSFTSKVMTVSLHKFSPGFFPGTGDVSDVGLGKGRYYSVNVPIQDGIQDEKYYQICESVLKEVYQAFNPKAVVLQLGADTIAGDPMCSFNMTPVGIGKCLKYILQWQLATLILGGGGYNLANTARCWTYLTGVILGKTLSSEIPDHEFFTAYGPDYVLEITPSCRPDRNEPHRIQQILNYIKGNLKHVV

[10] = molecular target: Histone deacetylase 9 (Homo sapiens, UniProt Q9UKV0); test: Inhibition of C-terminal His-tagged human HDAC9 (604 to 1066 residues) expressed in baculovirus infected sf9 cells using acetyl-lysine tripeptide as substrate preincubated for 10 mins followed by substrate addition and shaken for 5 secs and measured over 30 mins
[11] = molecular target: Histone deacetylase 2 (Homo sapiens, UniProt Q92769); test: Inhibition of human HDAC2 expressed in Sf9 cells using acetyl-lysine tripeptide as substrate preincubated for 10 mins followed by substrate addition and shaken for 5 secs and measured over 30 mins
Histone deacetylase 2, sequence (Q92769 whole entry): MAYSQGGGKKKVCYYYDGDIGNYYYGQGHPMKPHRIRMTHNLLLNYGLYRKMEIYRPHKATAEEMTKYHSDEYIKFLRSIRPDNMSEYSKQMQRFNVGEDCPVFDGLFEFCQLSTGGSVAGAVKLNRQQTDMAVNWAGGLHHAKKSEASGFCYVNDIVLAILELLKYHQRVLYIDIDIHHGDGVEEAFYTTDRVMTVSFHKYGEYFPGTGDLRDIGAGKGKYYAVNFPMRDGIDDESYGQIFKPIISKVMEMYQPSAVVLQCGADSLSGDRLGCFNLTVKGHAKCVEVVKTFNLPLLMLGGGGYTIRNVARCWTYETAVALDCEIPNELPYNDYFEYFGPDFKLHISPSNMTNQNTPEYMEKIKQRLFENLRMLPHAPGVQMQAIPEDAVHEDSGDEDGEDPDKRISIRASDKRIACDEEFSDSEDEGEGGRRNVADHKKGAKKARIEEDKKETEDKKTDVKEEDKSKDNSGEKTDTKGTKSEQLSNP

Histone deacetylase 5, sequence (Q9UQL6 whole entry): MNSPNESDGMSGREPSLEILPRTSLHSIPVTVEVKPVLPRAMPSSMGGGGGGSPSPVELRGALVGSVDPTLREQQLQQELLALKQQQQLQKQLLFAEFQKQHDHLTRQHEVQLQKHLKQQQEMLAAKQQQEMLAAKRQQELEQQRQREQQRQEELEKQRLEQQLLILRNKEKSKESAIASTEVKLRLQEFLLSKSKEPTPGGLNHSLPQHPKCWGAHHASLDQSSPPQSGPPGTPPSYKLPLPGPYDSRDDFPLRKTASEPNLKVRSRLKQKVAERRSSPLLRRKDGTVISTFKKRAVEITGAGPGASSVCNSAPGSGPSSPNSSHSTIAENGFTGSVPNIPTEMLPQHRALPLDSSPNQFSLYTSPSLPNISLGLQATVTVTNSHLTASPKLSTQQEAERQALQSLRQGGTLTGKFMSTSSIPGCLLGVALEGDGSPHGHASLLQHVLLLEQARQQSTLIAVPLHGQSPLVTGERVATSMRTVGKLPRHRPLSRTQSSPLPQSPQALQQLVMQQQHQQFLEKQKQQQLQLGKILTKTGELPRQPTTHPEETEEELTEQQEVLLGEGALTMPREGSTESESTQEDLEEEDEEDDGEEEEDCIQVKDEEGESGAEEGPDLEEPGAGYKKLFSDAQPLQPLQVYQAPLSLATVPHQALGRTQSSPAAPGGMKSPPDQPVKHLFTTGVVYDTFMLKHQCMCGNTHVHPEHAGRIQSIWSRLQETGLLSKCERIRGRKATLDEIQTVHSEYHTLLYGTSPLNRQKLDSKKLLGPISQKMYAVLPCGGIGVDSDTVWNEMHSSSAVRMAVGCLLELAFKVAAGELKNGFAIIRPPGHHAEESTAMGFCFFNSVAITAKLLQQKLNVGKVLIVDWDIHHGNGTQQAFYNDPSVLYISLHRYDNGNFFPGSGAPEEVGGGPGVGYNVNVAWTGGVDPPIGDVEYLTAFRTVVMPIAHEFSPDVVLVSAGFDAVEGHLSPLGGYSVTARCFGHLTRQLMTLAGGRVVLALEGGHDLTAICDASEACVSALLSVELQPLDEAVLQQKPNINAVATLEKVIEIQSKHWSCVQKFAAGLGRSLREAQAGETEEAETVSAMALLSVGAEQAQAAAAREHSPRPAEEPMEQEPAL
Histone deacetylase 4, sequence (P56524 whole entry): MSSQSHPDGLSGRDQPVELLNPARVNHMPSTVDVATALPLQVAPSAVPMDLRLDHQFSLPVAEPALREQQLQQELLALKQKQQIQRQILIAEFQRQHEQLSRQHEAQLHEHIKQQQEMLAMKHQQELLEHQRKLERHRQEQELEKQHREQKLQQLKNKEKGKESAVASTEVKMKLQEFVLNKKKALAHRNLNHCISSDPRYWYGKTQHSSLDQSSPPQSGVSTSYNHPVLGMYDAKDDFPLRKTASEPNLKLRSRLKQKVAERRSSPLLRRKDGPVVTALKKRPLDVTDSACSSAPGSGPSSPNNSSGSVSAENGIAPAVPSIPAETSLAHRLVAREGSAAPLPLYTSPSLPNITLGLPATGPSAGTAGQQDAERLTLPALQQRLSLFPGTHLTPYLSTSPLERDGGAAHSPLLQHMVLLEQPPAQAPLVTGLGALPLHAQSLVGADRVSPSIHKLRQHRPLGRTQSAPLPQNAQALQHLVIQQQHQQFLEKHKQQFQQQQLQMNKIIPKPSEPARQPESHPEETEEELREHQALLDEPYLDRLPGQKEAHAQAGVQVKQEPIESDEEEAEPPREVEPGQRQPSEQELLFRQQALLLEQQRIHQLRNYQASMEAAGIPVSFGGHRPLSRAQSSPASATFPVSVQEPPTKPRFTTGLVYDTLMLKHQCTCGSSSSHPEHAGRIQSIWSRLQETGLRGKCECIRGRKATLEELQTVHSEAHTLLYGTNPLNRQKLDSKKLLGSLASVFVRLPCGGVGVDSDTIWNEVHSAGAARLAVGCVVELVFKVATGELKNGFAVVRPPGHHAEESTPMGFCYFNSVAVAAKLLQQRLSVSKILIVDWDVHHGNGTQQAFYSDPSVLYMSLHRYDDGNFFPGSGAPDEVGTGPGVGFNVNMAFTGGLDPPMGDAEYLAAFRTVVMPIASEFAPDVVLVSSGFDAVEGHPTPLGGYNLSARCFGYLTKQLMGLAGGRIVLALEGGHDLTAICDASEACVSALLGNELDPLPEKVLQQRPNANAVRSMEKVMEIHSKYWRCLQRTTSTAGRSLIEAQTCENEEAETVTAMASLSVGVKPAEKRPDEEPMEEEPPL
Histone deacetylase 9, sequence (Q9UKV0 whole entry, the tested form may be a part): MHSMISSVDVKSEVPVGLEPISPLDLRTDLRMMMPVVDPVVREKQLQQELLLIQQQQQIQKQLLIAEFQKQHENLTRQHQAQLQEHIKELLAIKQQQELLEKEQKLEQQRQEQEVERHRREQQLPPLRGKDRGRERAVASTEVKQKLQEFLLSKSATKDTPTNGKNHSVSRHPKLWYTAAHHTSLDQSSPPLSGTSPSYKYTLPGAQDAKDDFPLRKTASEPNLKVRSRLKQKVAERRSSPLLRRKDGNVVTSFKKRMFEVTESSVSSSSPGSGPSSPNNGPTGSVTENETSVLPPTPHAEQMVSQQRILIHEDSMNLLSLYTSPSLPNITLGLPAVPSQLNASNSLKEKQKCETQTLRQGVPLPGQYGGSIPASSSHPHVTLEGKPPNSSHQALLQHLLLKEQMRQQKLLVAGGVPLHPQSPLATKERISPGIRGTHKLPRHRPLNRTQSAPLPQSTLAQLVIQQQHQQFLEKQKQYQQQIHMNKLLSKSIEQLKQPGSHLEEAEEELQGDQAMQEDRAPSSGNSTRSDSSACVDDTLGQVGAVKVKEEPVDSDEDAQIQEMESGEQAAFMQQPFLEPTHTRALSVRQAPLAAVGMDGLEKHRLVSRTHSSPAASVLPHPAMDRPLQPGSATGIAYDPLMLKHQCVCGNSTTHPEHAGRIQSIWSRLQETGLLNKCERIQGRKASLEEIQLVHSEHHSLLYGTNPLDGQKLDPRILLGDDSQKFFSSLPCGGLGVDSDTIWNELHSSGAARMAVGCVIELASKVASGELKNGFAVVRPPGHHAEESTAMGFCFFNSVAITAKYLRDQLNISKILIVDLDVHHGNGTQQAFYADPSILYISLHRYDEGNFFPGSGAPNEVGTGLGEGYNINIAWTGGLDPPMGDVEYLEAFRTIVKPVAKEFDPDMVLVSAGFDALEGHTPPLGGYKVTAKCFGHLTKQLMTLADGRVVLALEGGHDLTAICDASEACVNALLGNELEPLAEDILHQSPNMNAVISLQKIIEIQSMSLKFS

Nc1cc(F)ccc1NC(=O)c1ccc(CNC(=O)/C=C/c2cccnc2)cc1 [TUCIDINOSTAT]
IC50 [1]: 100 nM | IC50 [2]: 400 nM

NCCCNCCCCCC(=O)NO
IC50 [3]: 120 nM

Nc1ccc(-c2cccs2)cc1NC(=O)c1ccc2nc(N3CCNCC3)ccc2c1
IC50 [4]: 1000 nM | IC50 [5]: > 20000 nM | IC50 [6]: > 20000 nM | IC50 [7]: > 20000 nM | IC50 [8]: > 20000 nM | IC50 [9]: > 20000 nM | IC50 [10]: > 20000 nM | IC50 [11]: 26 nM
